Reference: patent US6787569B1, “Therapeutic guanidines” (Cambridge NeuroScience, Inc., priority 1994, dated 2004)

Tested on: depolarization-induced 3H-glutamate release from brain nerve terminals
Assay: Inhibition of 3H-glutamate release, high [K+] depolarization, rapid superfusion of synaptosomes
Format: biochemical
Settings: rat brain synaptosomes; for % Inhibition of ^3H-Glu Rel @ 1 μM: 1 μM compound; for % Inhibition of ^3H-Glu Rel @ 0.3 μM: 0.3 μM compound

SMILES | % Inhibition of ^3H-Glu Rel @ 1 μM [%] | % Inhibition of ^3H-Glu Rel @ 0.3 μM [%] | % Inhibition of ^3H-Glu Rel @ 0.1 μM (0.1 μM compound) [%]
CCC(C)c1ccc(N(C)C(=N)N(Cc2ccc(C(C)(C)C)cc2)c2ccc(C(C)CC)cc2)cc1.Cl (stereo not shown) [Example 84, N-(4-sec-Butylphenyl)-N-(4-tert-butylbenzyl)-N′-(4-sec-butylphenyl)-N′-(methyl)guanidine.HCl] | 37 |  | 
CCC(C)c1ccc(N(Cc2ccc(C(C)(C)C)cc2)C(=N)NN2C(C)COCC2C)cc1.Cl (stereo not shown) [Example 82, N-(4-sec-Butylphenyl)-N-(4-tert-butylbenzyl)-N′-(3,5-dimethyl-4-morpholinyl)guanidine.HCl] |  | 60 | 
CCC(C)c1ccc(N(Cc2ccc(C(C)(C)C)cc2)C(=N)Nc2ccc(Cl)cc2)cc1.Cl (stereo not shown) [Example 86, N-(4-sec-Butylphenyl)-N-(4-tert-butylbenzyl)-N′-(4-chlorophenyl)guanidine.HCl] |  | 45 | 16
Br.CC(C)(C)c1cccc(NC(=N)Nc2cccc(C(C)(C)C)c2)c1 [Example 31, N,N′-Di-(3-tert-butylphenyl)guanidine.HBr] | 24 |  | 
CCC(C)c1ccc(N(Cc2ccc(C(C)(C)C)cc2)C(=N)N2CCc3ccccc3C2)cc1.Cl (stereo not shown) [Example 80] |  | 68 | 
Cl.N=C(N)N(Cc1ccc(OCc2ccccc2)cc1)c1ccc2c3c(cccc13)CC2 [Example 65, N-(5-Acenaphthyl)-N-(4-benzyloxybenzyl)guanidine.HCl] | 42 |  | 
CC(C)(C)c1ccc(NC(=N)Nc2ccc(OCc3ccccc3)cc2)cc1.Cl [Example 93, N-(4-Benzyloxyphenyl)-N′-(4-tert-butylphenyl)guanidine.HCl] | 91 | 48 | 
CCC(C)c1ccc(N(Cc2ccc(C(C)(C)C)cc2)C(=N)NN2CCOCC2)cc1.Cl (stereo not shown) [Example 75, N-(4-sec-Butylphenyl)-N-(4-tert-butylbenzyl)-N′-(4-morpholinyl)guanidine.HCl] |  | 42 | 
CCCCc1ccc(NC(=N)N(C)c2ccc(CCCC)cc2)cc1.Cl [Example 101, N,N′-Bis-(4-butylphenyl)-N-methylguanidine.HCl] |  | 35 | 
CCCCOc1ccc(N(Cc2ccc(C(C)(C)C)cc2)C(=N)Nc2ccccc2)cc1.Cl [Example 87, N-(4-Butoxylphenyl)-N-(4-tert-butylbenzyl)-N′-(phenyl)guanidine.HCl] |  | 36 | 
CCCCCN(C(=N)Nc1ccc(C(C)CC)cc1)c1ccc(C(C)CC)cc1.Cl (stereo not shown) [Example 46, N,N′-(sec-Butylphenyl)-N′-(n-pentyl)guanidine.HCl] | 100 | 65 | 
CC(C)(C)c1ccc(CN(C(=N)N)c2cccc(C(C)(C)C)c2)cc1.Cl [Example 63, N-(3-tert-Butylphenyl)-N-(4-tert-butylbenzyl)guanidine.HCl] | 40 |  | 
CCCCCOc1cccc(N(Cc2ccc(C(C)(C)C)cc2)C(=N)N)c1.Cl [Example 64, N-(3-Pentoxyphenyl)-N-(4-tert-butylbenzyl)guanidine.HCl] | 41 |  | 
